One data set deals with T1, adenosine kinase (Bos taurus, UniProt A0AAA9RZ79).
T1 construct: endogenous in cells; host or cells: capillary endothelial cells from bovine heart
Briefly: Adenosine kinase inhibition in intact cells (capillary endothelial cells from bovine heart). Type of data set: cell-based. As to conditions: 20 μM 2'-deoxycoformycin, 5 μM [3H]adenosine. On the procedure:
Inhibition of adenosine kinase in intact cells was determined from the amount of incorporation of radioisotope from adenosine into the adenylates (AMP, ADP and ATP) in the presence of adenosine deaminase inhibition. […] The media was then discarded and the cells were treated with 50 μl 0.4M perchloric acid, centrifuged and the supernalants neutralized with 100 μl alanine: freon (1:4).

For data set [1], the system named is fMLP-stimulated human neutrophils on human umbilical vein endothelial cells. Briefly: Inhibition of neutrophil adherence to endothelial cells. It counts as cell-based. As to conditions: for inhibition of neutrophil adhesion to endothelial cells: fMLP-stimulated neutrophils, 2 hours, 37° C.; for effect of adenosine deaminase co-treatment on inhibition of neutrophil adhesion: with adenosine deaminase 0.125 U/mL. On the procedure:
The ability of an adenosine kinase inhibitor to affect neutrophil adherence to fibroblasts and endothelial cells was evaluated in a cell culture model. […] These incubations were carried out in the presence of fMLP-stimulated human neutrophils isolated from whole blood (1.25×10^6/mL) with or without adenosine deaminase (0.125 U/mL). At the end of the incubation, the medium was removed and the monolayers of fibroblasts or endothelial cells and adherent neutrophils were fixed by addition of formaldehyde (3.7%) and, after washing to remove non-adherent neutrophils, adherent neutrophils were stained with Weigart's hematoxylin and counted under a light microscope.

Data set [2] relates to adenosine release, rat cardiomyocytes. The settings on record: cited from earlier work.
Data set [3] has as its system adenosine release, isolated guinea pig hearts. As to conditions: cited from earlier work.
The target in data set [4] is T2, purified pig heart adenosine kinase (Sus scrofa, UniProt A0A5G2R0F5).
T2 construct: purified pig heart adenosine kinase; from tissue; host or cells: pig heart
Briefly: Inhibition of adenosine kinase activity (purified pig heart enzyme). It counts as biochemical. On the procedure: Inhibition of enzyme activity was determined using a 0.1 mL assay mixture containing 50 mM Tris-maleate, pH 7.0, 0.1% (w/v) BSA, 1 mM ATP, 1 mM MgCl2, 0.5 μM [U-^14 C]adenosine (500 mCi/mmol) and 0.1 μg of purified pig heart adenosine kinase. Different concentrations of the test compounds were incubated in the assay mixture for 20 min. at 37° C. From each reaction mixture, 20 μl portions were removed and spotted on 2 cm^2 pieces of Whatman DE81 filter paper. […] The papers were dried, and [^14 C]AMP measured by scintillation counting.

For another data set, the system named is E. coli LPS endotoxemia. Briefly: Survival in endotoxemia (E. coli LPS) in mice. It counts as in vivo, Balb/C mice. As to conditions: 200 mg/kg i.p. 30 minutes prior to LPS and drug. The text has this:
An adenosine kinase inhibitor (GP-1-515) was used to increase endogenous adenosine production in vivo.

The subject of the next data set is TNF-α. As to the kind of experiment: Inhibition of TNF-alpha production in endotoxemic mice (ELISA). As to conditions: 200 mg/kg i.p. 30 minutes prior to LPS and GP-1-515. Type of data set: in vivo, Balb/C mice. On the procedure: In these experiments, plasma TNF-α levels were measured in GP-1-515and placebo-treated mice (8 animals per group). Balb/C mice received an intravenous injection of E. coli LPS (900 ug/animal) (Sigma Chemical Co.) followed immediately by a second injection with 0.1 mg/kg of GP-1-515 or vehicle. Some animals were pretreated with an intraperitoneal injection of the adenosine receptor antagonist 8SPT. One hour later, blood was obtained from ether anesthetized animals by intracardiac puncture using a heparinized syringe. Blood samples were chilled on ice, centrifuged at 5000 rpm in a microcentrifuge for 5 minutes, and the plasma removed. TNF-α levels in the plasma were assayed by ELISA according to the instructions provided by the manufacturer (Endogen, Cambridge, Mass.).
For orientation: In an ELISA, binding on a coated surface is turned into a signal by an enzyme label.

Data set [5] in a line: Acute i.v. hemodynamics in the rat. Type of data set: in vivo, Sprague Dawley rats. On the procedure: The ability of the adenosine kinase inhibitor GP-1-238 to show effects on blood pressure, heart rate or body temperature was compared in anesthetized and conscious rats. Sprague Dawley rats were anesthetized with pentobarbital and catheterized in the jugular vein and carotid artery. GP-1-238 (0.1-5 mg/kg/min) was infused intravenously in stepwise increments (0.2 mL/min×5 minutes). The experiments in conscious rats were conducted in the same manner after rats had been catheterized and allowed to recover for 2 days following surgery.

Another data set relates to cardiac adenosine kinase. Briefly: Inhibition of cardiac adenosine kinase in vivo. The settings on record: conscious rats, i.v.
Data set [6] concerns Mycobacterium butyricum adjuvant arthritis. Briefly: Adjuvant arthritis in rats. Type of data set: in vivo, Lewis rats. On the procedure:
Lewis rats received a single subcutaneous tail injection of 0.75 mg Mycobacterium butyricum mixed in paraffin oil on day 0. […] Hind paw volume was measured by Mercury displacement.

For data set [7] the following is noted: cited from earlier work.
For data set [8] the following is noted: mouse, in vivo; cited from earlier work.
Data set [9] deals with adenosine uptake, guinea pig brain slices. As to conditions: cited from earlier work.
Data set [10] relates to adenosine uptake, rat brain slices. As to conditions: cited from earlier work.
Where [11] appears, read: conscious animals, doses greatly in excess of that required to inhibit cardiac adenosine kinase.

“Also recorded” adds a separate entry of the source.

T2 sequence (A0A5G2R0F5 1-362): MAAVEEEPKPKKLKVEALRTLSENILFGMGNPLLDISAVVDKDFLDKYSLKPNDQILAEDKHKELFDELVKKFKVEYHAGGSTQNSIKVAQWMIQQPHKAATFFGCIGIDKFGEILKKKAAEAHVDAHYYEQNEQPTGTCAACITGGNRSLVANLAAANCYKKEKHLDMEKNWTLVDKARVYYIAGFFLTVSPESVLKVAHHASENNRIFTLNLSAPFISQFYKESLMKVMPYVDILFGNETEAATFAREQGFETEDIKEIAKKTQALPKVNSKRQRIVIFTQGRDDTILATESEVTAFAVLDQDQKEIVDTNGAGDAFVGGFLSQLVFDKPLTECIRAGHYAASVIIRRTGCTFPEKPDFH
T1 sequence (A0AAA9RZ79 1-362): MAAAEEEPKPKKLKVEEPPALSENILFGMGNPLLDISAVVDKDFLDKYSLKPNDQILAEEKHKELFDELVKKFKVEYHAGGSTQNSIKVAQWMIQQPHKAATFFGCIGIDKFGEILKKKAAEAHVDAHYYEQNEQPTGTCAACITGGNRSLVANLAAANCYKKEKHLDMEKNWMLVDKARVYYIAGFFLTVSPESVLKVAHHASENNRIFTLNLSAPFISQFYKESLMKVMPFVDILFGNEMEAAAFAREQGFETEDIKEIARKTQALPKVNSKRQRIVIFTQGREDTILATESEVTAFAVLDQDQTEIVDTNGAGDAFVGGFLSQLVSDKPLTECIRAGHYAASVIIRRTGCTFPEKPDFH

In general, IC50 refers to the concentration at which inhibition is half-maximal. High values mean weaker potency, low ones greater potency. On to `C[C@H]1O[C@@H](n2nc(-c3ccccc3)c3c(Nc4ccccc4)ncnc32)[C@H](O)[C@@H]1O` [GP-1-665], for which the IC50 against adenosine kinase came to 4.5 nM.
Take `CNc1ncnc2c1ncn2[C@@H]1O[C@H](CN)[C@@H](O)[C@H]1O` [GP-1-272]: in data set [1], the “inhibition of neutrophil adhesion to endothelial cells” value is on record as “inhibit neutrophil adhesion to endothelial cells; also recorded: dose-dependent inhibition” and the “effect of adenosine deaminase co-treatment on inhibition of neutrophil adhesion” value was “reversed by adenosine deaminase treatment; also recorded: reversal of this inhibition”.
For the molecule `NC[C@H]1O[C@@H](n2cnc3c(N)ncnc32)[C@H](O)[C@@H]1O` [5'-amino-5'-deoxyadenosine], in data set [2] (inhibition of ADA together with adenosine kinase), the “increase in adenosine release from rat cardiomyocytes” value is on record as 6 -fold. In data set [3] (absence of ADA inhibition), the “adenosine release, isolated guinea pig hearts, no ADA inhibition” value is “not apparent in the absence of ADA inhibition”. In addition, in [3] (in the presence of EHNA), the “increase of adenosine release, isolated guinea pig hearts” value is 15 -fold.
For `OC[C@H]1O[C@@H](n2cnc3c2N=CNC[C@H]3O)C[C@@H]1O` [2'-deoxycoformycin], the “adenosine release from rat cardiomyocytes” value in [2] (ADA inhibition alone) is recorded as “no effect on adenosine release”.
Turning to `OC[C@H]1O[C@@H](n2cc(-c3ccco3)c3c(Nc4ccccc4)ncnc32)[C@H](O)[C@@H]1O` [GP-1-718], in data set [4], the IC50 is below 10 nM.
On to `Cn1c(=O)c2[nH]c(-c3ccc(S(=O)(=O)O)cc3)nc2n(C)c1=O` [8-p-sulphophenyltheophylline, reference compound], for which the “effect on GP-1-515-induced protection” value in the data set on E. coli LPS endotoxemia is reported as “completely inhibited the protective effect of GP-1-515; also recorded: blocking the GP-1-515-induced protection”. For the same molecule, the “effect on GP-1-515-induced decrease of plasma TNF-α” value with TNF-α was “The decrease was prevented”.
Take `NC[C@H]1O[C@@H](n2cnc3c(N)ncnc32)[C@H](O)[C@@H]1O` [GP-1-238]: in data set [5] (setting [11]), the “effect on blood pressure, conscious animals” value is “No effects were observed”; the “effect on heart rate, conscious animals” value is reported as “No effects were observed”; the “effect on temperature, conscious animals” value was “No effects were observed”. The “hemodynamic effects, conscious rats” value in data set [5] (i.v. infusion 0.1-5 mg/kg/min, conscious rats, in contrast to anesthetized animals) is “no hemodynamic effects were seen”. Also, the “inhibition of adenosine kinase in vivo” value in the data set on cardiac adenosine kinase is on record as “completely inhibited adenosine kinase in vivo”.
Turning to `C[C@H]1O[C@@H](n2cc(I)c3c(N)ncnc32)[C@H](O)[C@@H]1O` [GP-1-456, 5'-deoxy-5-iodotubercidin], in data set [1], the “inhibition of neutrophil adhesion to endothelial cells” value is “inhibit neutrophil adhesion to endothelial cells; also recorded: dose-dependent inhibition” and the “effect of adenosine deaminase co-treatment on inhibition of neutrophil adhesion” value is recorded as “reversed by adenosine deaminase treatment; also recorded: reversal of this inhibition”. Further, the “reduction of hind paw edema” value in data set [6] (3 mg/kg p.o.) is “significant reduction of hind paw edema”. The “total mean hind paw edema” value in data set [6] (3 mg/kg p.o. day 1 through 19, day 19, untreated 2.55±0.20, p<0.05) was 1.41 ± 0.21 mL. Moreover, in [7], the “blood pressure and heart rate in anesthetized rats” value is “decrease blood pressure and heart rate”. Moreover, in data set [8], the “body temperature in mice” value is on record as “hypothermia”; the “flaccidity and locomotor activity in mice” value is “pronounced general flaccidity and much-reduced spontaneous locomotor activity”. Further, in data set [9], the “adenosine uptake, guinea pig brain slices” value is reported as “inhibited”. Besides, in data set [10], the “adenosine uptake, rat brain slices” value was “inhibited”.

These data come from patent US5646128A, “Methods for treating adenosine kinase related conditions” (priority 1994, dated 1997).
